Measured values from US11975051B1, “Therapeutic peptides and uses thereof” (priority 2022, dated 2024).
Entries after “also recorded” stand apart in the source; their conditions may differ. Where two headings read alike, the source gives them in different places. Where a SMILES comes first, the peptide text is derived from it. [ ]: non-standard residue; d: D form.

How the values were obtained:
Mouse plasma stability = assay type: in vitro ADME; details: read-out: Mouse Plasma Stability t½
[1] = Mouse (liver) microsomal stability; assay type: in vitro ADME; details: for half-life: mouse, liver microsomes
Rat microsomal stability = assay type: in vitro ADME; details: rat microsomes
Dog microsomal stability = assay type: in vitro ADME; details: dog microsomes
[2] = Pharmacokinetics in mice dosed IV, SC and PO; assay type: in vivo, mouse; details: for half-life / bioavailability / AUC(0-inf) / Cmax: mouse, in vivo, mice
[3] = Pharmacokinetics in rat (IV, SC, PO); details: in vivo
[4] = Pharmacokinetics in dog (PO); details: in vivo, read-out: % F (PO)
[5] = test system: SOD1^G93A mouse model of ALS; test: 6-week efficacy testing of TVALA in drinking water in the SOD1^G93A mouse model of ALS; assay type: in vivo
Protocol: A 6-week efficacy testing of test article, TVALA™, in daily drinking water, in the SOD1^G93A mouse model of ALS, with neurological scoring, neuroinflammation and axonopathy outcome measures was conducted by orally dosing with 3 mg/kg or 10 mg/kg. In phrenic nerves the axons numbers are not affected at this age, however axons start to atrophy, in femoral nerves, the mice lose axons and the remaining ones are atrophied.

[6] = test system: ALS patient derived adipose stem cells (ASCs); test: Ionomycin-stressed ALS patient derived adipose stem cells, rescue by test compound (SeaHorse); assay type: cell-based, human
Protocol: Adipose stem cells (“ASCs”) derived from fat tissue harvested from an ALS patient were glycolytic showing increased proliferation and lipid accumulation in culture. An in vitro model of mitochondrial dysfunction was initiated with ALS patient derived ASCs grown in growth media. After cells were confluent, the growth media was treated with chemical stressors, such as ionomycin. Ionomycin induces cell death, apoptosis, peroxide formation, extracellular ATP, and peroxynitrites that are related to mitochondrial dysfunction. The media was exchanged and replaced with basic DMEM with 4 mM pyruvate and no additional growth factors. Test compounds were added in an effort to rescue the ionomycin treated cells. After recovery, 6 hours, the cells were measured for viability, apoptosis, peroxides, and peroxynitrites by SeaHorse analysis. The ASC patient derived cells are a good model to investigate dysregulated mitochondrial dysfunction in disease, these effects are not apparent in all ALS patient derived iPSC fibroblast cells (data not shown).

ALS patient-derived ASCs = test: Stressed ALS patient-derived ASCs treated with peptides, SeaHorse analytics (Example 6); assay type: cell-based, human
Source text: ALS patient-derived ASCs showing hypermetabolism and lipid sequestration were stressed and treated with peptides (shown below, column 2) and effect of the peptide measured with SeaHorse analytics.

A-375 (Prdx6 KO) cells = test: Erastin-induced ferroptotic cell death, viability; assay type: cell-based; details: pre-treatment followed by TVALA treatment; data not shown
Protocol: (§1) Melanoma cell lines A-375, A-375 non-target, and A-375 (Prdx6 KO) cells were pre-incubated with TVALA™, washed, and treated with Erastin. Following treatment, the cells were evaluated for viability. […] When the cells were pre-treated with TVALA™, washed, and incubated with TVALA™ followed by treatment with Erastin, the cells were protected against Erastin-induced cell death. When A-375 non target cells or A-375 knock out cells were used there was no effect of pre-treatment followed by TVALA™ treatment as expected (data not shown).

A-375 melanoma cells = test: Erastin-induced ferroptotic cell death, viability; assay type: cell-based; details: washed
Protocol: as §1

A-375 non-target cells = test: Erastin-induced ferroptotic cell death, viability; assay type: cell-based; details: pre-treatment followed by TVALA treatment; data not shown
Protocol: as §1

[7] = In vitro comparisons of Elamipretide triacetate and TVALA; details: data not shown
Protocol: TVALA™ may be steroid sparing in diseases that involve innate immunity and autoimmune components that are traditionally treated with steroids. For example, age-related macular degeneration is treated with steroid anti-inflammatory agents. TVALA™ is used as an adjunct to traditional therapies, decreasing or eliminating the need for steroids. Another example is for renal dialysis patients, for which TVALA™ is used as adjunctive or as a replacement to anti-inflammatory therapies. Elamipretide Triacetate is a small, mitochondrially-targeted d-tetrapeptide that is not entirely different from TVALA™, as both have two basic residues (Arg and Lys) and both have a d-Arg. Elamipretide triacetate appears to reduce the production of the toxic reactive oxygen species and stabilize cardiolipin to moderate mitochondrial disease.

For `CC(C)[C@@H](NC(=O)[C@H](N)Cc1ccc(O)cc1)C(=O)N[C@H](CC(=O)O)C(=O)N[C@H](CCCCN)C(=O)N[C@H](CCCNC(=N)N)C(=O)O` [TVALA™, H-(D-Tyr)-(D-Val)-(D-Asp)-(D-Lys)-(D-Arg)-OH] (H-[dY][dV][dD][dK][dR]-OH), the half-life (Mouse plasma stability) was over 120 min, the “stability in mouse liver microsomes, half-life” value ([1]; mouse liver microsomes, listed as SEQ ID NO:1) was “greater than 120 minutes” and the half-life ([1]; mouse liver microsomes, read-out: stability in mouse liver microsomes, half-life) was over 120 min. For the same compound, the half-life ([1]; mouse microsomes, read-out: Mouse Microsomal Stability t½) was over 60 min, the half-life (Rat microsomal stability) was over 60 min and the half-life (Dog microsomal stability) was over 60 min. The half-life ([2]; IV, read-out: IV t½, mice) was 6.22 min, the bioavailability ([2]; PO, read-out: PO % F, mice) was 30% and the AUC(0-inf) ([2]; PO, read-out: PO AUCinf) was 2.4 µg·h/mL. For the same compound, the Cmax ([2]; PO, read-out: PO Cmax) was 5.29 µg/mL, the half-life ([2]; PO, read-out: PO t½, mice) was 7.36 min and the bioavailability ([2]; SC, read-out: SC % F, mice) was 52%. The AUC(0-inf) ([2]; SC, read-out: SC AUCinf) was 0.355 µg·h/mL, the Cmax ([2]; SC, read-out: SC Cmax) was 0.674 µg/mL and the half-life ([2]; SC, read-out: SC t½, mice) was 11.9 min. The “expected impact of the oral drug on the central nervous system” value ([2]; oral, based on in vivo testing (Table 4)) was 5%, the bioavailability ([3]; PO, read-out: % F (PO)) was 6.7% and the bioavailability ([3]; SC, read-out: % F (SC)) was 79.2%. The bioavailability [4] was 4.9%, the “neuroprotection on the phrenic and femoral motor axon sizes” value ([5]; 3 mg/kg dose) was “very discrete neuroprotection” and the “effect on the neuroinflammatory marker GFAP (spinal cord)” value ([5]; 3 mg/kg orally compared with 10 mg/kg orally) was “more significant effects than 10 mg/kg orally”. For the same compound, the “Femoral motor axon size” value ([5]; 3 mg/kg orally, SOD1^G93A hemizygous mice, vs vehicle/controls) was “axons of slightly larger size; also recorded: slightly larger femoral motor axons than vehicle treated mice”, the “Phrenic nerve cross-section area (phrenic axon size)” value ([5]; 10 mg/kg orally, SOD1^G93A hemizygous mice, vs vehicle/control) was “smallest axons; also recorded: smaller phrenic axons than vehicle treated mice” and the brain inflammation ([5]; oral administration, data not shown) was “not impacted”. The “comparison with TP-5 in ALS patient derived cells” value [6] was “superior to TP-5”, the VEGFR2 expression ([6]; ALS patient derived cells) was “normalizes” and the peroxides ([6]; ALS-ASC cells in vitro) was “reduces”. For the same compound, the “dysregulated mitochondrial energy metabolism” value ([6]; in vitro) was “rescues”, the “extracellular ATP (eATP)” value ([6]; in vitro cultured ASCs from an ALS patient) was “decreased” and the “effect of the peptide measured with SeaHorse analytics” value (ALS patient-derived ASCs) was “superior to the other compounds”. The “effect on Erastin-induced cell death” value (A-375 (Prdx6 KO) cells) was “no effect”, the “rescue against Erastin-induced cell death (viability)” value (A-375 melanoma cells; pre-incubated with peptide, treated with Erastin) was “did not rescue” and the “protection against Erastin-induced cell death (viability)” value (A-375 melanoma cells; pre-treated, incubated with peptide, followed by Erastin) was “protected”. For the same compound, the “effect on Erastin-induced cell death” value (A-375 non-target cells) was “no effect”, the “immunomodulation compared with Elamipretide triacetate” value [7] was “superior at immunomodulation” and the “target receptors compared with Elamipretide triacetate” value [7] was “more target receptors”.
